Measured values reported in US20240285512A1, “ORAL CARE COMPOSITIONS” (Firmenich SA, priority 2021, published 2024).
Where two headings read alike, the source gives them in different places.

Legend:
Type in all cases: cell-based
[1] = test system: mature biofilm of defined inocula (12 bacterial strains of Table 1); assay: Biofilm disruption assay, defined inocula (7-day mature biofilm, SYTO 9 fluorescence); details: for inhibition at 0.01 % / inhibition at 10000 µM / inhibition at 0.1 %: read-out: Disruption Δ (difference in relative biofilm abundance between control base and treatment); for inhibition at 0.1 %: dosage 0.1%
Method: (§1) A total of 12 bacterial strains were selected based on scientific literature. The strains were grown in media recommended by strain suppliers. Broth cultures were adjusted to log 7 CFU/mL with growth media containing 20% of glycerol. For C. matruchotii growth medium with glycerol was used to wash off the colonies culture plates, the cell suspension was then homogenized by vortexing with glass beads. The aerobic and anaerobic strains were mixed and aliquoted separately. The inocula were stored at −80° C. until use.
(§2) Saliva and oral inocula preparation. Saliva and oral microflora samples were collected from healthy volunteers by passive drooling using a method described previously. • (a) Bacteria Adhesion assay. Pegs of 96-well MBEC plate (Innovotech, Canada) were submerged in saliva for pellicle formation. Overnight culture of A. oris, A. naeslundii, S. mitis and S. oralis were normalized to OD=0.1 using 0.85% NaCl and mixed in equal proportions. The plates were treated with samples for 2 min and incubated with the culture mixture for 30 min at 37° C. and 5% CO2. The pegs on 96-well plates were then washed 3 times before harvest. • (b) Biofilm formation assay. Saliva-coated 96-well MBEC plates were incubated with inocula anaerobically overnight. The next day, the inoculum was replaced with modified BHI broth (BHI supplemented with 1 g/L mucin, 0.5 mg/L Vitamin K and 10 mg/L hemin). The devices were treated for 2 min twice to mimic the application of dental care products, after which the treatment solution was replaced with fresh modified BHI broth and incubation of the devices was continued. The biofilms were harvested after two days. • (c) Biofilm disruption assay. The inoculation and incubation was done in the same manner as described in the formation assay except that the incubation time was extended to 7 days, after which the mature biofilm was subjected to treatment twice a day as in the formation assay for 3 days before harvest.
(§3) Biofilm harvest. To harvest the attached cells, the peg of the MBEC device was immersed in 200 μL of saline solution per well. The plates were sonicated in an ultrasonic bath to obtain cell suspension. For the adhesion assay, the suspension was serially diluted and plated on Tryptic Soy Agar using Microlab STAR (Hamilton). For the formation and disruption assays, the suspension was used for SYTO 9 staining using LIVE/DEAD® BacLight Bacterial Viability Kits L7012 (Thermo Fisher Scientific) following manufacturer instructions.
(§4) The inventors used the assays described above to screen more ingredients for activity in a model mouth wash (Table 5).
(§5) The compounds and compositions for testing activities in Table 6 were dissolved in DMSO. The rest of the ingredients of mouth rinse in Table 5 were mixed to make a master mix in water and then aliquoted. The DMSO solution was then added to the master mix and homogenized.

[2] = test system: A. oris, A. naeslundii, S. mitis and S. oralis; assay: Bacteria adhesion assay, defined inocula (MBEC pegs, saliva pellicle, CFU plating); details: for inhibition at 0.01 % / inhibition at 10000 µM / inhibition at 0.1 %: relative CFU with base designated as 100, read-out: Adhesion Δ (difference in relative biofilm abundance between control base and treatment); for Adhesion Δ (difference in relative biofilm abundance between control base and treatment): relative CFU with base designated as 100
Method: as §1, §2, §3, §4, §5

[3] = test system: biofilm of defined inocula (12 bacterial strains of Table 1); assay: Biofilm formation assay, defined inocula (MBEC plates, SYTO 9 fluorescence); details: for inhibition at 0.01 % / inhibition at 10000 µM / inhibition at 0.1 %: read-out: Formation Δ (difference in relative biofilm abundance between control base and treatment); for inhibition at 0.1 %: dosage 0.1%
Method: as §1, §2, §3, §4, §5

[4] = dosage 0.01%, defined inocula, relative fluorescence intensity with base designated as 100
[5] = dosage 10 mM in model mouth rinse with DMSO, defined inocula, relative fluorescence intensity with base designated as 100
[6] = dosage 10 mM in model mouth rinse with DMSO
[7] = defined inocula, relative fluorescence intensity with base designated as 100

## CCC=CCCOC(C)=O [3-HEXENYL ACETATE, 3-hexenyl acetate]
[1]; [4]
  inhibition at 0.01 %: 64.7%
[2]; dosage 0.01%
  inhibition at 0.01 %: 32.7%
[3]; [4]
  inhibition at 0.01 %: 78.1%

## CC=Cc1ccc(OC)cc1 [Anethole]
[1]; [5]
  inhibition at 10000 µM: 77.4%
[2]; [6]
  inhibition at 10000 µM: 17.4%
[3]; [5]
  inhibition at 10000 µM: 53.4%

## CC(=O)/C=C/C1=C(C)CCCC1(C)C [BETA IONONE, (3E)-4-(2,6,6-Trimethylcyclohex-1-en-1-yl)but-3-en-2-one]
[1]; [4]
  inhibition at 0.01 %: 61.8%
[2]; dosage 0.01%
  inhibition at 0.01 %: 19.4%
[3]; [4]
  inhibition at 0.01 %: 80.8%

## O=CC=Cc1ccccc1 [Cinnamaldehyde]
[1]; [7]
  inhibition at 0.1 %: 48.2%
[2]; dosage 0.1%
  inhibition at 0.1 %: -9.1%
[3]; [7]
  inhibition at 0.1 %: 83.3%

## CC(C)=CCCC(C)CCO (centres unmarked) [Citronellol]
[1]; [5]
  inhibition at 10000 µM: 67%
[2]; [6]
  inhibition at 10000 µM: 91.7%
[3]; [5]
  inhibition at 10000 µM: 58.1%

## CCCCCCCCCC(=O)O [Decanoic acid]
[1]; [5]
  inhibition at 10000 µM: 89.8%
[3]; [5]
  inhibition at 10000 µM: 93.3%

## CC(C)=CCC/C(C)=C/CO [GERANIOL, Geraniol]
[1]; [4]
  inhibition at 0.01 %: 61.7%
[2]; dosage 0.01%
  inhibition at 0.01 %: 32.1%
[3]; [4]
  inhibition at 0.01 %: 84.7%

## CC(C)CCO [ISOAMYL ALCOHOL, Isoamyl alcohol]
[1]; [7]
  inhibition at 0.1 %: 57.4%
[2]; dosage 0.1%
  inhibition at 0.1 %: 63.7%
[3]; [7]
  inhibition at 0.1 %: 82.3%

## CCCCCC1C(=O)CCC1CC(=O)OC (centres unmarked) [Methyl (2-pentyl-3-oxocyclopentyl) acetate]
[1]; [4]
  Disruption Δ (difference in relative biofilm abundance between control base and treatment): 63.2
[2]; dosage 0.01%
  Adhesion Δ (difference in relative biofilm abundance between control base and treatment): 37.1
[3]; [4]
  Formation Δ (difference in relative biofilm abundance between control base and treatment): 86.3

## CCCCCCCCCCCCCC(=O)O [Myristic Acid, Myristic acid]
[1]; [5]
  inhibition at 10000 µM: 87.9%
[2]; [6]
  inhibition at 10000 µM: 33.3%
[3]; [5]
  inhibition at 10000 µM: 64.9%

## C=C(C)[C@@H]1CCC2=CC(=O)C[C@@H](C)[C@]2(C)C1 [Nootkatone]
[1]; [5]
  inhibition at 10000 µM: 63.1%
[2]; [6]
  inhibition at 10000 µM: 86.4%
[3]; [5]
  inhibition at 10000 µM: 20.3%

## CCCCC1CCC(=O)O1 (centres unmarked) [OCTALACTONE, Gamma octalactone]
[1]; [4]
  Disruption Δ (difference in relative biofilm abundance between control base and treatment): 74.1
[2]; dosage 0.01%
  Adhesion Δ (difference in relative biofilm abundance between control base and treatment): 63.5
[3]; [4]
  Formation Δ (difference in relative biofilm abundance between control base and treatment): 89.1

## Cc1ccc(C(C)C)c(O)c1 [THYMOL, Thymol]
[1]; [7]
  inhibition at 0.1 %: 72%
[2]; dosage 0.1%
  inhibition at 0.1 %: 5.7%
[3]; [7]
  inhibition at 0.1 %: 86.7%

## CC/C=C\CCOC(=O)CCCCC [cis-3-hexenylhexanoate]
[1]; [5]
  Disruption Δ (difference in relative biofilm abundance between control base and treatment): 75.3
[2]; [6]
  Adhesion Δ (difference in relative biofilm abundance between control base and treatment): 9.1
[3]; [5]
  Formation Δ (difference in relative biofilm abundance between control base and treatment): 58.1

## CCCCCCCCCCC(=O)O [undecanoic acid, Undecanoic acid]
[1]; [5]
  inhibition at 10000 µM: 89.1%
[2]; [6]
  inhibition at 10000 µM: 98.8%
[3]; [5]
  inhibition at 10000 µM: 87.5%

## Butanol
[1]
  Disruption Δ (difference in relative biofilm abundance between control base and treatment): 59.5
[2]; dosage 0.1%
  Adhesion Δ (difference in relative biofilm abundance between control base and treatment): 56.8
[3]
  Formation Δ (difference in relative biofilm abundance between control base and treatment): 83.5
